Laboratory results: patent US10779532B2, “Methods and compositions for killing of insect pest eggs” (North Carolina State University, priority 2016, dated 2020)

Experiments:
[1] = test system: cotton bollworm eggs; assay: Killing insect eggs, cotton bollworm model system (3 second dip, egg hatch over 4 days); assay type: in vivo; conditions: 2-undecanone from 1 to 8% in absolute ethanol, hatch assessed 4 days, highest level of the dose response
Text: Due to their obligate parasitic lifestyle, lice, head lice, in particular, are very difficult to obtain. Thus, bollworm eggs were used in place of lice eggs for the experiments showing efficacy of the treatments described herein. […] Therefore, it is understood that if the treatment works on bollworm eggs, it will also work on the eggs of head lice. Further, the experiments using body lice, a recognized proxy for head lice, confirmed the effectiveness of the treatment with the formulations of this invention.
All treatments were conducted by dipping the bollworm eggs in the different treatments for 3 seconds, allowing the eggs to dry at room temperature, and then assessing egg hatch for the following 4 days. The eggs typically hatch under these conditions in 2.5 days. The solvent used in these experiments was absolute ethanol.

[2] = test system: insect pest eggs; assay: Exposure of insect pest eggs to formulations, percent killed; assay type: in vivo
Text: As well understood, the percentage of eggs killed may depend on the concentration of the ovicide and the exposure time to the ovicide (e.g., the time for applying). Thus, applying or contacting of the compositions and formulations of the invention generally results in the killing of about 45% to about 100% (e.g., about 45, 50, 55, 60, 65, 70, 75, 80, 85, 90, 95, 100%) of the insect pest eggs for any given time period. However, the compositions and formulations are shown to work very quickly and efficiently, resulting in a killing of 100% of the insect pest eggs following a very short contact or application time. Thus, in some embodiments, a one to five second exposure results in a 100% kill of the insect pest eggs. In some embodiments, exposure of insect pest eggs to a formulation of 1% 2-undecanone and 1% DE for 3 seconds kills about 100% of the insect pest eggs. In some embodiments, exposure of insect pest eggs to a formulation of 8% 2-undecanone and 1% DE for 1 second kills about 100% of the insect pest eggs. In some embodiments, exposure of insect pest eggs to a formulation of 5% 2-undecanone for 1 second kills about 70% of the insect pest eggs. In some embodiments, exposure of insect pest eggs to a formulation of 15% 2-undecanone for about one to about five second kills about 100% of the insect pest eggs. […]

[3] = Evaporation of 2-undecanone after application; assay type: physicochemical; conditions: typically
[4] = test system: lice; assay: Killing of lice stages; assay type: in vivo; conditions: all stages of the lice
[5] = test system: eggs; assay: Residual activity against eggs; assay type: in vivo; conditions: after application

CCCCCCCCCC(C)=O [2-undecanone]
egg mortality [1]: about 90%
insect pest eggs killed ([2]; 5% 2-undecanone, exposure 1 second): about 70%
insect pest eggs killed ([2]; 15% 2-undecanone, exposure about one to about five second): about 100%
time to evaporate [3]: ≤ 30 min
killing of lice stages [4]: kill all stages of the lice
residual activity against eggs [5]: minimal residual activity
